Data taken from US4450269A, “Mono-5-substituted-3-chloro-4H-1,2,6-thiadiazin-4-one antifungal agents” (FMC Corporation, priority 1980, dated 1984).

Tests used:
Pyricularia oryzae = assay: whole plant or invertebrate; format: in vivo; details: for pest or weed control at 150 ppm: Pyricularia oryzae, foliar, 24 h, read-out: Percent Disease Control, curative, rice blast, 150 ppm, 24 hours after inoculation
Uromyces phaseoli = details: in vivo
Cercospora beticola [1] = details: in vivo
Cladosporium cucumerinum = assay: Mycelial growth test; format: cell-based; details: CC; for Percent Fungus Growth Inhibition: 72 hours; for inhibition at 5 ppm / inhibition at 10 ppm / inhibition at 40 ppm / inhibition at 20 ppm: Cladosporium cucumerinum, read-out: Percent Fungus Growth Inhibition; for inhibition at 5 ppm / inhibition at 10 ppm / inhibition at 40 ppm: 72 h; for inhibition at 20 ppm: CC20, 72 h
Excerpt: |CC = Cladosporium cucumerinum

Fusarium solani = assay: Soil treatment, bean root rot; format: in vivo; details: 150 ppm suspension, 3.8 mg active per pot; for pest or weed control at 150 ppm, 3.8 mg/pot: Fusarium solani, soil, 336 h, read-out: Percent Disease Control, seed/soil, bean root rot
In short: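 Soil around bean seedlings was drenched with a 150 ppm suspension, giving 3.8 mg active per pot. Twenty-four hours later the soil was inoculated with minced Fusarium solani mycelium. Plants were kept in a greenhouse, and percent control of root rot damage was scored after fourteen days.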

Erysiphe polygoni = details: in vivo
Cercospora beticola [2] = assay: whole plant or invertebrate; details: in Beta vulgaris, foliar, 24 h, read-out: Percent Disease Control, curative, sugar beet leaf spot

Compound	Percent Disease Control, curative, rice blast (Pyricularia oryzae; 150 ppm, 24 hours after inoculation) [%]	Percent Disease Control, foliar, bean rust (Uromyces phaseoli) [%]	Percent Disease Control, curative, sugar beet leaf spot (Cercospora beticola [1]) [%]	Percent Fungus Growth Inhibition (Cladosporium cucumerinum; 5 ppm) [%]	Percent Fungus Growth Inhibition (Cladosporium cucumerinum; 10 ppm) [%]	Percent Fungus Growth Inhibition (Cladosporium cucumerinum; 20 ppm) [%]	Percent Fungus Growth Inhibition (Cladosporium cucumerinum; 40 ppm) [%]	Percent Disease Control, seed/soil, bean root rot (Fusarium solani) [%]	Percent Disease Control, curative, bean powdery mildew (Erysiphe polygoni) [%]	pest or weed control at 150 ppm (Pyricularia oryzae) [%]	pest or weed control at 150 ppm (Cercospora beticola [2]) [%]	inhibition at 5 ppm (Cladosporium cucumerinum; 5 ppm) [%]	inhibition at 10 ppm (Cladosporium cucumerinum; 10 ppm) [%]	inhibition at 40 ppm (Cladosporium cucumerinum; 40 ppm) [%]	inhibition at 20 ppm (Cladosporium cucumerinum; 20 ppm) [%]	pest or weed control at 150 ppm, 3.8 mg/pot (Fusarium solani) [%]
3-chloro-5-(bromophenoxy)-4H-1,2,6-thiadiazin-4-one [Compound 33]	0	100	0	11	28	61	83	95	95	–	–	–	–	–	–	–
Cc1cc(Cl)ccc1Oc1nsnc(Cl)c1=O [Compound 55, 3-chloro-5-(4-chloro-2-methylphenoxy)-4H--1,2,6-thiadiazin-4-one]	–	–	–	–	–	–	–	–	–	50	95	0	11	28	22	0
Cc1ccc(Oc2nsnc(Cl)c2=O)c(Br)c1 [Compound 57, 3-[(2-bromo-4-methyl)-phenoxy]-5-chloro-4H--1,2,6-thiadiazin-4-one]	–	–	–	–	–	–	–	–	–	0	90	42	56	78	78	0
Cc1cc(Cl)c(Oc2nsnc(Cl)c2=O)cc1C [Compound 58, 3-chloro-5-[(2-chloro-4,5-dimethyl)phenoxy]-4H--1,2,6-thiadiazin-4-one]	–	–	–	–	–	–	–	–	–	0	0	44	44	61	42	0
Cc1cc(Oc2nsnc(Cl)c2=O)cc(C)c1Cl [Compound 59, 3-chloro-5-[(4-chloro-3,5-dimethyl)phenoxy]-4H--1,2,6-thiadiazin-4-one]	–	–	–	–	–	–	–	–	–	0	0	28	42	61	47	0
Cc1cc(Oc2nsnc(Cl)c2=O)cc(C)c1Br [Compound 60, 3-[(4-bromo-3,5-dimethyl)-phenoxy]-5-chloro-4H--1,2,6-thiadiazin-4-one]	–	–	–	–	–	–	–	–	–	0	0	33	36	47	44	0
